Assay results taken from paper PMC10410513, “Differential roles for ACBD4 and ACBD5 in peroxisome–ER interactions and lipid metabolism” (The Journal of Biological Chemistry, 2023).

What was measured:
[1] = target: T1, ACBD5 (Homo sapiens, UniProt Q5T8D3); assay: competition with […]C18:1-CoA, pull-down on Ni-NTA resin; type: binding; details: 2 uM protein, 5 uM [14C]C18:1-CoA, 0.2-20 uM competitor
T1 construct: recombinant MBP-His tagged, E. coli, amylose resin purified, tag kept
T1 sequence (Q5T8D3 1-490 isoform Q5T8D3-2): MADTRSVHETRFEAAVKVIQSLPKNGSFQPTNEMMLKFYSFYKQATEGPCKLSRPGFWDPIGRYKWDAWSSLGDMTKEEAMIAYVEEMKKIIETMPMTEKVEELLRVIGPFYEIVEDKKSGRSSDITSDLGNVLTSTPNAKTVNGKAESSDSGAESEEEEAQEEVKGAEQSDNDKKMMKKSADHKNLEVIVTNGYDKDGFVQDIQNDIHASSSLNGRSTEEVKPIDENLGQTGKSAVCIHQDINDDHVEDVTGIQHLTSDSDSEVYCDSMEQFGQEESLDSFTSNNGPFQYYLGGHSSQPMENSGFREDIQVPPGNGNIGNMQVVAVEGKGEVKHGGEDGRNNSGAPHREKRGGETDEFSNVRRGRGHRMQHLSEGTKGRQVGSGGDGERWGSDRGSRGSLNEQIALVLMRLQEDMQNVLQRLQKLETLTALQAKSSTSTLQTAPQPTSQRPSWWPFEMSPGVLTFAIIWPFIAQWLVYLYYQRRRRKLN

[2] = target: T2, ACBD4 (Homo sapiens, UniProt Q8NC06); assay: as above; type: binding; details: 2 uM protein, 5 uM [14C]C18:1-CoA, 0.2-20 uM competitor
T2 construct: recombinant MBP-His tagged, E. coli, amylose resin purified, tag kept
T2 sequence (Q8NC06 1-305 isoform Q8NC06-2): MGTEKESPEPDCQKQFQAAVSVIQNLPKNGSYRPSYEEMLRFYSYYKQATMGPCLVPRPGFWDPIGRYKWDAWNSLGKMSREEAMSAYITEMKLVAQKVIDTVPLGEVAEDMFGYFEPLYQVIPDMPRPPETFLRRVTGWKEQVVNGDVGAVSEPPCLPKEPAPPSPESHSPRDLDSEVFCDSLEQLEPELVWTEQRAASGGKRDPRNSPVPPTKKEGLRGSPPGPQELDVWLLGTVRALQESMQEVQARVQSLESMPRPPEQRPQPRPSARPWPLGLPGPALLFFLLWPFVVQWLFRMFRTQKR

In the case of CCCCCCCCCCCCCCCCCCCCCCCC(=O)SCCNC(=O)CCNC(=O)[C@H](O)C(C)(C)COP(=O)(O)OP(=O)(O)OC[C@H]1O[C@@H](n2cnc3c(N)ncnc32)[C@H](O)[C@@H]1OP(=O)(O)O [C24-CoA], the “competition with [14C]C18:1-CoA, pull-down on Ni-NTA resin” value [1] is reported as “a stronger preference for the very-long-chain C24-CoA compared to the two long-chain acyl-CoAs” and the “competition with [14C]C18:1-CoA, pull-down on Ni-NTA resin” value [2] is reported as “ACBD4, which displayed a similar preference for long and very-long acyl-CoAs”.
